Source: patent US7163946B2 (Ligand Pharmaceuticals Incorporated, priority 2002, dated 2007)

Molecular target: T1, hPR (Homo sapiens, UniProt P06401)
T1 sequence (P06401 1-933): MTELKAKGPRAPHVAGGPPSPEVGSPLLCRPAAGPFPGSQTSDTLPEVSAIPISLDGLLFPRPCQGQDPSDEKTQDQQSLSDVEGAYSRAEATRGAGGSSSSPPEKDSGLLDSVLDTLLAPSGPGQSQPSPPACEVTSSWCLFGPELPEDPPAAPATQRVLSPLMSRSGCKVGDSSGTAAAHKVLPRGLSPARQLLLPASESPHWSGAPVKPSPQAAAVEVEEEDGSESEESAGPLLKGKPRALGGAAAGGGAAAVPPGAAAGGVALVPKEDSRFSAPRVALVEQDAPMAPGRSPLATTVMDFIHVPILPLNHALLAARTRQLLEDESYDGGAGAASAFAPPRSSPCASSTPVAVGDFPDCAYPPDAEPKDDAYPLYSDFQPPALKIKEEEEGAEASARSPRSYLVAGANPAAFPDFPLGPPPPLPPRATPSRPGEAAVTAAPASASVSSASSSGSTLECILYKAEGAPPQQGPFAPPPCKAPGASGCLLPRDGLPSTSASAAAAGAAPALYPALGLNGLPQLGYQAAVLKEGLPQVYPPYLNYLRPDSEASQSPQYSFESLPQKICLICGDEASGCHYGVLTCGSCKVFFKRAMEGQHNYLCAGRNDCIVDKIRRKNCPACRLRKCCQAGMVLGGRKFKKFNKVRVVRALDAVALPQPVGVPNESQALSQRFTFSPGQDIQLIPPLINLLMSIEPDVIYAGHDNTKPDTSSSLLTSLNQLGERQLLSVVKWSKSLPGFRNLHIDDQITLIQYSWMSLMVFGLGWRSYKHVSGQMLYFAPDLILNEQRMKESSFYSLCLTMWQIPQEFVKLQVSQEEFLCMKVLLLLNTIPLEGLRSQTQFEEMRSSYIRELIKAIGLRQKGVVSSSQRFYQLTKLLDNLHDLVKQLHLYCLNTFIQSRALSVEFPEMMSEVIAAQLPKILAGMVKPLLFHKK
Experiment: hPR cotransfection assay in CV-1 cells, agonist mode
Type: cell-based
Conditions: Tables 3 and 4, values without footnote; read-out: hPR agonist potencies (EC50 in nM) in the cotransfection assay

| SMILES | EC50 [nM] |
| --- | --- |
| CC1=CC(C)(C)Nc2ccc3c(c21)C(c1cccc(C)c1)Oc1ccc(C)cc1-3 (stereo not drawn) [Formula I X=9-Me 3-Me-Ph, reference compound] | 44 |
| COc1ccc2c(c1)-c1ccc3c(c1C(c1cccc(C)c1)O2)C(C)=CC(C)(C)N3 (stereo not drawn) [Formula I X=9-OMe 3-Me-Ph, reference compound] | 11 |
| CC1=CC(C)(C)Nc2ccc3c(c21)C(c1cccc(C)c1)Oc1ccccc1-3 (stereo not drawn) [Formula I X=H 3-Me-Ph, reference compound] | 145 |
| CC1=CC(C)(C)Nc2ccc3c(c21)C(c1ccc2c(c1)OCO2)Oc1ccccc1-3 (stereo not drawn) [Formula I X=H Benzodioxol-5-yl, reference compound] | 48 |
| CC1=CC(C)(C)Nc2ccc3c(c21)/C(=C/c1ccccc1C)Oc1cc(F)c(F)cc1-3 [Formula II X=8,9-diF 2-Me-Ph, reference compound] | 13 |
| CC1=CC(C)(C)Nc2ccc3c(c21)/C(=C/c1ccccc1C)Oc1cc(F)ccc1-3 [Formula II X=8-F 2-Me-Ph, reference compound] | 13 |
| CC1=CC(C)(C)Nc2ccc3c(c21)/C(=C/c1cccc(F)c1)Oc1cc(F)ccc1-3 [Formula II X=8-F 3-F-Ph, reference compound] | 109 |
| CC1=CC(C)(C)Nc2ccc3c(c21)/C(=C/c1ccccc1)Oc1cc(F)ccc1-3 [Formula II X=8-F Phenyl, reference compound] | 187 |
| COc1ccc2c(c1)O/C(=C\c1ccccc1Cl)c1c-2ccc2c1C(C)=CC(C)(C)N2 [Formula II X=8-OMe 2-Cl-Ph, reference compound] | > 1000 |
| COc1ccc2c(c1)O/C(=C\c1ccccc1F)c1c-2ccc2c1C(C)=CC(C)(C)N2 [Formula II X=8-OMe 2-F-Ph, reference compound] | 45 |
| COc1ccc2c(c1)O/C(=C\c1ccccc1OC)c1c-2ccc2c1C(C)=CC(C)(C)N2 [Formula II X=8-OMe 2-MeO-Ph, reference compound] | 24 |
| COc1ccc2c(c1)O/C(=C\c1ccncc1C)c1c-2ccc2c1C(C)=CC(C)(C)N2 [Formula II X=8-OMe 3-Me-4-pyridinyl, reference compound] | 24 |
| COc1ccc2c(c1)O/C(=C\c1ccncc1)c1c-2ccc2c1C(C)=CC(C)(C)N2 [Formula II X=8-OMe 4-pyridinyl, reference compound] | 36 |
| CC1=CC(C)(C)Nc2ccc3c(c21)/C(=C/c1cc(F)ccc1F)Oc1ccc(Cl)cc1-3 [Formula II X=9-Cl 2,5-diF-Ph, reference compound] | 25 |
| CC1=CC(C)(C)Nc2ccc3c(c21)/C(=C/c1ccccc1F)Oc1ccc(Cl)cc1-3 [Formula II X=9-Cl 2-F-Ph, reference compound] | 26.5 |
| CC1=CC(C)(C)Nc2ccc3c(c21)/C(=C/c1cccc(F)c1)Oc1ccc(Cl)cc1-3 [Formula II X=9-Cl 3-F-Ph, reference compound] | 11.6 |
| CC1=CC(C)(C)Nc2ccc3c(c21)/C(=C/c1ccccc1Cl)Oc1ccc(F)cc1-3 [Formula II X=9-F 2-Cl-Ph, reference compound] | 12 |
| CC1=CC(C)(C)Nc2ccc3c(c21)/C(=C/c1cccs1)Oc1ccc(F)cc1-3 [Formula II X=9-F 2-Thienyl, reference compound] | 18 |
| CC1=CC(C)(C)Nc2ccc3c(c21)/C(=C/c1cc(F)ccc1F)Oc1ccc(O)cc1-3 [Formula II X=9-OH 2,5-diF-Ph, reference compound] | 10 |
| COc1ccc(F)cc1/C=C1\Oc2ccc(O)cc2-c2ccc3c(c21)C(C)=CC(C)(C)N3 [Formula II X=9-OH 2-MeO-5-F-Ph, reference compound] | 11.5 |
| CC1=CC(C)(C)Nc2ccc3c(c21)/C(=C/c1ccccc1)Oc1ccc(O)cc1-3 [Formula II X=9-OH Phenyl, reference compound] | 54.4 |
| COc1ccc2c(c1)-c1ccc3c(c1/C(=C/c1ccccc1C)O2)C(C)=CC(C)(C)N3 [Formula II X=9-OMe 2-Me-Ph, reference compound] | 67.5 |

Next, values leading:

| EC50 [nM] | SMILES |
| --- | --- |
| 10 | CC1=CC(C)(C)Nc2ccc3c(c21)/C(=C/c1cc(F)ccc1F)Oc1cc(O)ccc1-3 [Formula II X=8-OH 2,5-diF-Ph, reference compound] |
| 9.4 | CC1=CC(C)(C)Nc2ccc3c(c21)C(c1ccc(Cl)c(C)c1)Oc1ccc(Cl)cc1-3 (stereo not drawn) [Formula I X=9-Cl 4-Cl-3-Me-Ph, reference compound] |
| 9.3 | CC1=CC(C)(C)Nc2ccc3c(c21)/C(=C/c1ccccc1C)Oc1ccc(O)cc1-3 [Formula II X=9-OH 2-Me-Ph, reference compound] |
| 9 | CCC1Oc2ccc(F)cc2-c2ccc3c(c21)C(C)=CC(C)(C)N3 (stereo not drawn) [Formula I X=9-F Et, reference compound] |
| 8.6 | COc1ccc2c(c1)O/C(=C\c1cccc(F)c1)c1c-2ccc2c1C(C)=CC(C)(C)N2 [Formula II X=8-OMe 3-F-Ph, reference compound] |
| 8.5 | CC1=CC(C)(C)Nc2ccc3c(c21)/C(=C/c1ccccc1C)Oc1ccc(Cl)cc1-3 [Formula II X=9-Cl 2-Me-Ph, reference compound] |
| 8.4 | CC1=CC(C)(C)Nc2ccc3c(c21)/C(=C/c1cccc(F)c1C)Oc1ccc(F)cc1-3 [Formula II X=9-F 2-Me-3-F-Ph, reference compound] |
| 7.95 | CC1=CC(C)(C)Nc2ccc3c(c21)/C(=C/c1cccc(F)c1)Oc1ccc(C)cc1-3 [Formula II X=9-Me 3-F-Ph, reference compound] |
| 7.5 | C=CCC1Oc2ccc(F)cc2-c2ccc3c(c21)C(C)=CC(C)(C)N3 (stereo not drawn) [Formula I X=9-F Allyl, reference compound] |
| 7.3 | CC1=CC(C)(C)Nc2ccc3c(c21)/C(=C/c1ccccc1F)Oc1ccc(F)cc1-3 [Formula II X=9-F 2-F-Ph, reference compound] |
| 6.24 | CC1=CC(C)(C)Nc2ccc3c(c21)/C(=C/c1ccccc1)Oc1ccc(Cl)cc1-3 [Formula II X=9-Cl Phenyl, reference compound] |
| 6.2 | CC1=CC(C)(C)Nc2ccc3c(c21)/C(=C/c1ccccc1)Oc1c(Cl)cccc1-3 [Formula II X=7-Cl Phenyl, reference compound] |
| 5.75 | CC1=CC(C)(C)Nc2ccc3c(c21)/C(=C/c1cccc(F)c1)Oc1ccc(O)cc1-3 [Formula II X=9-OH 3-F-Ph, reference compound] |
| 5.5 | COc1ccc2c(c1)O/C(=C\c1ccccc1)c1c-2ccc2c1C(C)=CC(C)(C)N2 [Formula II X=8-OMe Phenyl, reference compound] |
| 5.25 | CC1=CC(C)(C)Nc2ccc3c(c21)/C(=C/c1ccccc1)Oc1ccc(F)cc1-3 [Formula II X=9-F Phenyl, reference compound] |
| 4.85 | CC1=CC(C)(C)Nc2ccc3c(c21)C(c1cccc(Cl)c1)Oc1ccc(C)cc1-3 (stereo not drawn) [Formula I X=9-Me 3-Cl-Ph, reference compound] |
| 3.95 | CC1=CC(C)(C)Nc2ccc3c(c21)/C(=C/c1cc(F)ccc1C)Oc1cc(F)c(F)cc1-3 [Formula II X=8,9-diF 2-Me-5-F-Ph, reference compound] |
| 3.95 | CC1=CC(C)(C)Nc2ccc3c(c21)/C(=C/c1ccc(F)cc1)Oc1ccc(F)cc1-3 [Formula II X=9-F 4-F-Ph, reference compound] |
| 3.5 | COc1ccc2c(c1)O/C(=C\c1ccccc1C)c1c-2ccc2c1C(C)=CC(C)(C)N2 [Formula II X=8-OMe 2-Me-Ph, reference compound] |
| 3 | CC1=CC(C)(C)Nc2ccc3c(c21)/C(=C/c1cc(F)ccc1F)Oc1ccc(F)cc1-3 [Formula II X=9-F 2,5-diF-Ph, reference compound] |
| 2.1 | CC1=CC(C)(C)Nc2ccc3c(c21)/C(=C/c1cc(F)ccc1C)Oc1ccc(Cl)cc1-3 [Formula II X=9-Cl 2-Me-5-F-Ph, reference compound] |
| 2.1 | CC1=CC(C)(C)Nc2ccc3c(c21)/C(=C/c1cc(F)ccc1C)Oc1ccc(F)cc1-3 [Formula II X=9-F 2-Me-5-F-Ph, reference compound] |
| 2 | CC1=CC(C)(C)Nc2ccc3c(c21)/C(=C/c1ccncc1C)Oc1ccc(F)cc1-3 [Formula II X=9-F 3-Me-4-pyridinyl, reference compound] |
| 0.93 | COc1ccccc1/C=C1\Oc2ccc(F)cc2-c2ccc3c(c21)C(C)=CC(C)(C)N3 [Formula II X=9-F 2-MeO-Ph, reference compound] |
| 0.9 | COc1ccc(F)cc1/C=C1\Oc2ccc(F)cc2-c2ccc3c(c21)C(C)=CC(C)(C)N3 [Formula II X=9-F 2-MeO-5-F-Ph, reference compound] |

Same assay, conditions: hPR agonist potencies (EC50 in nM) in the cotransfection assay, Tables 3 and 4, values without footnote

| SMILES | EC50 [nM] |
| --- | --- |
| CC1=CC(C)(C)Nc2ccc3c(c21)C(c1ccc(Cl)c(C)c1)Oc1ccc(C)cc1-3 (stereo not drawn) [Formula I X=9-Me 4-Cl-3-Me-Ph, reference compound] | 7.45 |
